Results from patent publication US10857105B2, “Compounds and compositions for intracellular delivery of therapeutic agents” (ModernaTX, Inc., priority 2017, dated 2020).

Columns and labels:
luciferase (Luc) mRNA [1] = test: Luciferase expression (whole body bioluminescence) after intravenous administration to mice; assay type: in vivo; conditions: intravenous, luciferase; for Novel lipid/MC3 ratio, i.v.: Table 3G, 6 hr. timepoint, relative to MC3; for Novel lipid/MC3 expression ratio, i.v.: 6 hr. time point, relative to MC3 formulation
Method in brief: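 Mice (n=6) received lipid nanoparticle formulations carrying luciferase mRNA intravenously at 0.5 mg/kg. Whole-body bioluminescence was measured at 3, 6 and 24 h. Total flux was taken as area under the curve and expressed relative to a standard MC3 formulation.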

luciferase (Luc) mRNA [2] = test: Luciferase expression after intramuscular administration to mice; assay type: in vivo; conditions: Luc mRNA, intramuscular, 0.01 mpk, 6 hours
Method in brief: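 CD-1 mice received lipid nanoparticle formulations of modified luciferase mRNA intramuscularly at 0.01 mpk. Bioluminescence total flux was measured, including at 6 h, and AUC was expressed relative to MC3 formulations. Immunogenicity was assessed in parallel.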

hEPO mRNA [3] = test: hEPO expression after intramuscular administration to mice; assay type: in vivo; conditions: Table 3G, intramuscular, hEPO, 6 hr. timepoint, relative to MC3
Method: The numbers 1-11 in this figure correspond to MC3, Compounds 18, 25, 30, 108-112, 60, and 122 respectively.
The expression of hEPO and cytokine induction in mice intravenously administered a nanoparticle composition at a dose of 0.5 mpk were measured at 3, 6, and 24 hours. […] The expression of hEPO in mice intramuscularly administered a nanoparticle composition from Table 1B at a dose of 0.01 mpk were measured at 3, 6, and 24 hours. […] (see

[4] = Encapsulation efficiency of RNA in nanoparticle compositions (RIBOGREEN assay); assay type: physicochemical; conditions: Table 1B; formulated with hEPO mRNA
Method in brief: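 Lipid nanoparticles (ionisable lipid:DSPC:cholesterol:PEG-DMG 50:10:38.5:1.5 mol %) carrying N1-methylpseudouridine luciferase or hEPO mRNA diluted to about 5 μg/mL in TE, pH 7.5, with or without 2% Triton X-100, 15 min at 37° C. RiboGreen fluorescence (ex ~480, em ~520 nm) blank-subtracted; free RNA = intact/disrupted signal.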

modified luciferase = test: Luciferase expression in liver, lung, spleen and femur 6 hours after intravenous administration to mice; assay type: in vivo; conditions: 6 hours after intravenous 0.5 mpk, mice
Method in brief: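 Nanoparticle formulations of the modified luciferase were given intravenously to mice (n=3) at 0.5 mpk. Bioluminescence was measured after 6 hours as total light flux. Standard MC3 formulation and PBS run as controls.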

[5] = Particle size and polydispersity index of nanoparticle compositions (Zetasizer Nano ZS); assay type: physicochemical
Method in brief: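 Size and PDI measured by Zetasizer Nano ZS in 1×PBS (zeta potential in 15 mM PBS). Lipid nanoparticles contained test ionizable lipid:DSPC:cholesterol:PEG-DMG at 50:10:38.5:1.5 mol % with N1-methyl-pseudouridine mRNA encoding luciferase or hEPO.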

[6] = Metabolite identification of Compound 18 incubated with human plasma; assay type: in vitro ADME; design: key to Detection at 0 min / Detection at 30 min / Detection at 60 min / Detection at 90 min: +: Detected; ND: Not detected; conditions: Compound 18 (10 μM), human plasma
Method: Metabolite Identification: Compound 18 (10 μM) was incubated with human plasma (29.0 mg protein/incubation) in incubation mixtures (200 μL final incubation volume) that consisted of 50/50 v/v neat plasma (undiluted)/substrate solution in 50 mM phosphate buffer, pH 7.4). The plasma was obtained from male and female donors and contained K2EDTA anticoagulant. Reactions were started by addition of the substrate solution to human plasma and were stopped at four designated time points (0, 30, 60 and 90 min) by the addition of 600 μL of stop reagent (acetonitrile). Stopped incubation samples were centrifuged (e.g., 10,000×g for 10 min at 10° C.) and the supernatant fractions were analyzed by LC-MS/MS to characterize the metabolites formed from compound 18. Additional incubations were performed with the positive control procaine […] to establish competency of the test system. Samples were analyzed by LC-MS/MS.
(§1) In vitro metabolite identification studies using compound 18 were also performed. […] The disappearance of parent compound 18 and the primary metabolite, compound 166, from mouse liver tissue was measured after dosing 0.25 mg/kg mRNA on days 1, 8, and 15.

human hepatocytes = test: Metabolite profiling of Compound 18 incubated with human hepatocytes; assay type: in vitro ADME; design: key: +: Detected; ND: Not detected; conditions: Compound 18 (10 μM), human hepatocytes
Method: as §1
The results of metabolic profiling and characterization for compound 18 incubated with human hepatocytes or human plasma are summarized in Tables 41 and 42, respectively.

mouse liver tissue = test: Disappearance of parent lipid and primary metabolite from mouse liver after 0.25 mg/kg mRNA on days 1, 8 and 15; assay type: in vivo
Method: as §1

hEPO mRNA [7] = test: Pretreatment study (methotrexate or dexamethasone) with MC3 formulation in Cynomolgus monkeys; assay type: in vivo; conditions: MC3 formulation with hEPO mRNA, once weekly for four weeks
Description: In order to combat negative effects, nanoparticle compositions are co-administered with one or more substances (e.g., co-medications or additional therapeutic and/or prophylactics) to subjects. Potentially useful additional therapeutic and/or prophylactics include steroids (e.g., corticosteroids), anti-histamines, H1 receptor blockers, H2 receptor blockers, anti-inflammatory compounds, statins, BTK inhibitors, S1P1 agonists, glucocorticoid receptor modulators (GRMs), and estradiols. Non-human primates are pretreated with one or more additional therapeutic agents selected from dexamethasone and acetaminophen. The additional therapeutic agent is administered either 24 hours, 1 hour, or both 24 hours and 1 hour before administration of a nanoparticle composition. Cytokine profiles, inflammation, and other parameters are measured and compared to evaluate the effectiveness of pretreatment
The effects of pretreatment to non-human primates were evaluated using a standard MC3 formulation including an mRNA encoding hEPO. Male monkeys were administered the nanoparticle composition once weekly for four weeks at a dose rate of 5 ml/kg/h and were pretreated with either methotrexate or dexamethasone.
As shown, in the absence of any pretreatment, maximal expression levels decreased nearly 70% over the course of the study.

[8] = Table 1A, lipid:DSPC:cholesterol:PEG-DMG 50:10:38.5:1.5 mol %
[9] = Table 1B, formulated with hEPO mRNA
[10] = Table 1C, compositions for subcutaneous administration

| Structure (SMILES) | Novel lipid/MC3 ratio, i.v. (luciferase (Luc) mRNA [1]) | Novel lipid/MC3 expression ratio, i.v. (luciferase (Luc) mRNA [1]) | Total flux 6 hours after intramuscular administration, 0.01 mpk Dose (luciferase (Luc) mRNA [2]) [p/s] | Novel lipid/MC3 ratio, i.m. hEPO (hEPO mRNA [3]) | EE [4] [%] | Total Flux, Liver (modified luciferase) | Total Flux, Lung (modified luciferase) | Total Flux, Spleen (modified luciferase) | Size [5, 8] [nm] | Size [5, 9] [nm] | Size [5, 10] [nm] | Detection at 30 min ([6]; 30 min) | Detection at 60 min ([6]; 60 min) | Detection at 90 min ([6]; 90 min) | Detection at 60 min (human hepatocytes; 60 min) | Detection at 120 min (human hepatocytes; 120 min) | Detection at 240 min (human hepatocytes; 240 min) | clearance from mouse liver tissue (mouse liver tissue) | Effect of pretreatment on protein expression (hEPO mRNA [7]) |
| --- | --- | --- | --- | --- | --- | --- | --- | --- | --- | --- | --- | --- | --- | --- | --- | --- | --- | --- | --- |
| CCCCCCCCCOC(=O)CCCCCCCN(CCCCCCCC(=O)OC(CCCCCCCC)CCCCCCCC)CCCNC(=O)N(C)C [Compound 110, Heptadecan-9-yl 8-((3-(3,3-dimethylureido)propyl)(8-(nonyloxy)-8-oxooctyl)amino)octanoate] | 0.19 | 0.19 | 1.21E+08 | 1.2 | 92.39 | 2.30E+08 | 5.76E+06 | 1.41E+08 | 91.5 | 73.3 | 91.5 | – | – | – | – | – | – | – | – |
| CCCCCCCCCOC(=O)CCCCCCCN(CCCCCCCC(=O)OC(CCCCCCCC)CCCCCCCC)CCCNC(=O)NC [Compound 112, Heptadecan-9-yl 8-((3-(3-methylureido)propyl)(8-(nonyloxy)-8-oxooctyl)amino)octanoate] | 0.08 | 0.08 | 9.47E+07 | 1.6 | 96.40 | 1.48E+08 | 1.83E+06 | 2.75E+07 | 83.7 | 60.6 | 83.7 | – | – | – | – | – | – | – | – |
| CCCCCCCCC(CCCCCCCC)OC(=O)CCCCCCCN(CCO)CCCCCCCC(=O)O [Compound 166, 8-((8-(Heptadecan-9-yloxy)-8-oxooctyl)(2-hydroxyethyl)amino)octanoic acid] | – | – | – | – | – | – | – | – | – | – | – | + | + | + | + | + | + | rapid clearance | – |
| CN(Cc1cnc2nc(N)nc(N)c2n1)c1ccc(C(=O)N[C@@H](CCC(=O)O)C(=O)O)cc1 [Methotrexate, methotrexate] | – | – | – | – | – | – | – | – | – | – | – | – | – | – | – | – | – | – | did not confer any particular beneficial effect |
